From patent US20150072856A1, “ADJUVANTS BASED ON OPTIONALLY ALKOXYLATED REACTION PRODUCTS OF GLYCEROL CARBONATE AND ALKYLAMINES” (BASF SE, priority 2012, published 2015)

Legend:
Assay type in all cases: in vivo
Conditions in all cases: 300 g/ha adjuvant, 375 l/ha tank mix, score vs untreated plants
[1] = tested on: winter wheat (cultivar Cubus); experiment: Greenhouse herbicidal activity of glyphosate tank mix with adjuvant on wheat
Experimental: (§1) An aqueous formulation (SL type) was prepared by dissolving 52.3 wt % potassium glyphosate in water. As adjuvant the ethoxylated (10 equivalents) carbamate from Example 1 was added and dissolved in the resulting SL formulation. This SL formulation was diluted with water to prepare a tank mix, which contained 0.8 g/l of the adjuvant, 0.75 g/l of the potassium glyphosate (or as alternative tank mix 0.37 g/l). This tankmix may be applied at 375 l/ha (corresponding to 300 g/ha adjuvant and 280 g/ha glyphosate (or 140 g/ha as alternative).
(§2) For the greenhouse tests, various crops (winter wheat (cultivar Cubus), maize (cultivar Amadeo), soybean (cultivar Delta P.), rapeseed) was sown or potted in loamy sandy soil to a depth of 1-2 cm. When the plants had reached a growth height of 10 to 25 cm (i.e., around 10 to 21 days after sowing), the spray mixtures were applied to the plants in a spraying cabin.
(§3) The tank mix prepared in Example 7 was applied at a application rate of 375 l/ha (140 or 280 g of glyphosate/ha and 300 g of adjuvant/ha). The temperatures in the experimental period, which lasted for 3 to 4 weeks, were between 18-35° C. […]
(§4) The herbicidal activity was evaluated by awarding scores to the treated plants in comparison to the untreated control plants (Table 1 and 2). […]

maize (cultivar Amadeo) = experiment: Greenhouse herbicidal activity of glyphosate tank mix with adjuvant on maize
Experimental: as §1, §2, §3, §4

[2] = tested on: soybean (cultivar Delta P.); experiment: Greenhouse herbicidal activity of glyphosate tank mix with adjuvant on soybean
Experimental: as §1, §2, §3, §4

rapeseed = experiment: Greenhouse herbicidal activity of glyphosate tank mix with adjuvant on rapeseed
Experimental: as §1, §2, §3, §4

O=C(O)CNCP(=O)([O-])O.[K+] [—, potassium glyphosate]
Activity [%] after 21 days DAT, Wheat ([1]; 140 g/ha glyphosate): 8% | Activity [%] after 21 days DAT, Wheat ([1]; 280 g/ha glyphosate): 31% | Activity [%] after 21 days DAT, Maize (maize (cultivar Amadeo); 140 g/ha glyphosate): 13% | Activity [%] after 21 days DAT, Maize (maize (cultivar Amadeo); 280 g/ha glyphosate): 63% | Activity [%] after 21 days DAT, Soybean ([2]; 140 g/ha glyphosate): 0% | Activity [%] after 21 days DAT, Soybean ([2]; 280 g/ha glyphosate): 0% | Activity [%] after 21 days DAT, Rapeseed (rapeseed; 140 g/ha glyphosate): 0% | Activity [%] after 21 days DAT, Rapeseed (rapeseed; 280 g/ha glyphosate): 0%
